Assay results as given in publication PMC12603272 (2025).

System: AT-rich palindromic dodecanucleotide dsDNA (DNA, duplex) CGCAAATTTGCG
Assay: photoluminescence titration
Details: dsDNA stock 10 mM Tris, 0.1 mM EDTA pH 8.0, 25 °C

Compound	binding (dsDNA (0-8 µM) into 8 µM compound in D2O)	binding (dsDNA (0-10 µM) into 10 µM compound in D2O)
CN1CCN(c2ccc3nc(-c4ccc5nc(-c6ccc(O)cc6)[nH]c5c4)[nH]c3c2)CC1	yes	
Cn1ccc(=Nc2ccc(NC(=O)c3ccc(N=c4ccn(C)c5ccc([N+](=O)[O-])cc45)cc3)cc2)cc1		yes
